Experiment [1] concerns SUMO-activating enzyme and SUMOylation. In words: Inhibition of SUMO-activating enzyme and SUMOylation in cultured tumor cell lines. The experiment is classed as cell-based. The conditions noted are these: cultured mouse and human tumor cell lines.
In experiment [2] the target is SUMO-activating enzyme (Homo sapiens, UniProt Q9UBT2). In words: Biochemical assays of SUMO-activating enzyme inhibition.
The test system of experiment [3] is Daudi human Burkitt’s Lymphoma cell line. In words: Study 1: Daudi xenograft human Burkitt's lymphoma subcutaneous tumor model. The experiment is classed as in vivo, CB17 SCID mice. Conditions: for GRI%: vs vehicle; for Tumor growth relative to vehicle-treated tumors (pairwise comparison): I-263a 7.5 mg/kg BIW, daratumumab 7.5 mg/kg BIW or both, data up to Day 22, p < 0.001. As for the experimental part:
(§1) Low tumor volumes can cause problems with the data analysis, so all measurements below 25 cubic mm (including 0 values) were excluded from the analysis. After this exclusion step, the tumor volume was assumed to follow an exponential growth model. More specifically, for a given animal and treatment group,
(§2) Pairwise comparisons were performed, where the mean growth rates were compared for various pairs of treatment conditions. The results were summarized using the growth rate inhibition (GRI). Suppose µT and µC are the mean tumor growth rates for the treatment and reference groups, respectively. Define
(§3) Here, µAB, µA, µB, and µControl are the mean growth rates for the combination, drug A, drug B, and control groups, respectively. As before, µv is the mean tumor growth rate for the vehicle group, which in most cases is the same as the control group. The standard error of the synergy score was calculated as the square root of the sum of squared standard errors across the four groups. The degrees of freedom were estimated using the Welch-Satterthwaite equation. A hypothesis test was performed to determine if the synergy score differed from 0. P-values were calculated by dividing the synergy score by its standard error and tested against a t-distribution (two-tailed) with the above-calculated degrees of freedom. A P value of less than 0.05 is statistically significant.
(§4) The combination results can be interpreted as follows. Statistically significant negative synergy scores indicate a synergistic combination (“Syn.”). Statistically significant positive synergy scores indicate a sub-additive combination (“Sub-add.”) when the combination performs better (i.e. has a lower growth rate) than the best performing single agent. Statistically significant positive synergy scores indicate an antagonistic combination (“Antag.”) when the combination performs worse than the best performing single agent. Scores that are not statistically significant should be considered additive (“Add.”).
Daudi is a human Burkitt’s Lymphoma cell line. A Daudi human xenograft tumor model was generated by subcutaneous inoculation with 2.0 […] 10^6 Daudi cells (cell suspension) in 6 weeks old female CB17 SCID mice (Charles River Laboratories, 251 Ballardvale St., Wilmington, MA) in the flank. When the mean tumor volume reached approximately 120 mm^3, the animals were randomized into one vehicle control and three treatment groups (n=8/group). Mice were then dosed with 20% HPβCD or Compound I-263a and/or daratumumab over a 21-day period. Tumor growth and body weight were measured twice per week during the treatment and post-treatment periods, and mice were humanely euthanized once they had reached their humane endpoint.
A 1.725 mg/mL and a 0.862 mg/mL stock solution of I-263a was formulated weekly in 20% HPβCD and administered intravenously (IV) based on an average body weight using a 0.2 mL dosing volume. Final doses I-263a received were 7.5 mg/kg. I-263a was administered on a BIW schedule for 3 weeks (Days 1, 4, 8, 11, 15, and 18). Daratumumab (anti-CD38 antibody) (Myoderm Medical Supplies, 48 E Main St., Norristown, PA 19401) was purchased at the beginning of the study and stored at 4° C. according to manufacturer’s instructions. Final dose daratumumab received was 7.5 mg/kg based on average body weight. Daratumumab was administered intraperitoneally (IP) using a 0.1 mL dosing volume, on a BIW schedule for 3 weeks (Days, 1, 4, 8, 11, 15, and 18).
Tumors were measured twice weekly using Vernier calipers. Tumor volumes were calculated using standard equation: V = W^2 x L/2, where V = volume, W = width, and L = length for the tumor. When mean tumor volumes reached approximately 120 mm^3, mice were randomized into control and treatment groups. Mice were randomized into 4 groups (n=8/group) and dosed with vehicle (20% HPβCD), I-263a, daratumumab, or the combination of I-263a plus daratumumab at doses and schedules described above. […]

Experiment [4] has as its system LP-1 human multiple myeloma cell line. In words: Study 3: LP-1 xenograft human multiple myeloma subcutaneous tumor model. The experiment is classed as in vivo, CB17 SCID mice. The conditions noted are these: for GRI%: vs vehicle. How it is done:
as §1, §2, §3, §4
LP-1 is a human multiple myeloma cell line. A LP-1 human xenograft tumor model was generated by subcutaneous inoculation with […] LP-1 cells (cell suspension) in 7 weeks old female CB17 SCID mice (Charles River Laboratories, 251 Ballardvale St., Wilmington, MA) in the flank. When the mean tumor volume reached approximately 100 mm^3, the animals were randomized into one vehicle control and seven treatment groups (n=8/group). Mice were then dosed with 20% HPβCD or Compound I-263a or daratumumab over a 35-day period. Tumor growth and body weight were measured twice per week during the treatment and post-treatment periods, and mice were humanely euthanized once they had reached their humane endpoint.
A 0.75 mg/mL stock solution of I-263a was formulated weekly in 20% HPβCD and administered IV based on an average body weight using a 0.2 mL dosing volume. Final dose I-263a received was 7.5 mg/kg. I-263a was administered on a BIW schedule for 5 weeks (Days 1, 4, 8, 11, 15, 18, 22, 25, 29 and 33). Daratumumab (anti-CD38 antibody) (Myoderm Medical Supplies, 48 E Main St., Norristown, PA 19401) was purchased at the beginning of the study and stored at 4° C. according to manufacturer’s instructions. Final dose daratumumab received was 2.5 mg/kg, 7.5 mg/kg, and 20 mg/kg based on average body weight. Daratumumab was administered intraperitoneally (IP) using a 0.1 mL dosing volume, on a BIW schedule for 5 weeks (Days 1, 4, 8, 11, 15, 18, 22, 25, 29 and 33).
Tumors were measured twice weekly using Vernier calipers. Tumor volumes were calculated using standard equation: V = W^2 × L/2, where V = volume, W = width, and L = length for the tumor. When mean tumor volumes reached approximately 100 mm^3, mice were randomized into control and treatment groups. Mice were randomized into 8 groups (n=8/group) and dosed with vehicle (20% HPβCD), I-263a, daratumumab, or the combination of I-263a plus daratumumab at doses and schedules as described above. […]

The mark [5] stands for this setting: I-263a 7.5 mg/kg BIW 5 weeks (p < 0.01), daratumumab 20 mg/kg (p < 0.01), I-263a 7.5 mg/kg BIW with daratumumab 2.5, 7.5 or 20 mg/kg (p < 0.001).

Chain of SUMO-activating enzyme (Q9UBT2 whole entry): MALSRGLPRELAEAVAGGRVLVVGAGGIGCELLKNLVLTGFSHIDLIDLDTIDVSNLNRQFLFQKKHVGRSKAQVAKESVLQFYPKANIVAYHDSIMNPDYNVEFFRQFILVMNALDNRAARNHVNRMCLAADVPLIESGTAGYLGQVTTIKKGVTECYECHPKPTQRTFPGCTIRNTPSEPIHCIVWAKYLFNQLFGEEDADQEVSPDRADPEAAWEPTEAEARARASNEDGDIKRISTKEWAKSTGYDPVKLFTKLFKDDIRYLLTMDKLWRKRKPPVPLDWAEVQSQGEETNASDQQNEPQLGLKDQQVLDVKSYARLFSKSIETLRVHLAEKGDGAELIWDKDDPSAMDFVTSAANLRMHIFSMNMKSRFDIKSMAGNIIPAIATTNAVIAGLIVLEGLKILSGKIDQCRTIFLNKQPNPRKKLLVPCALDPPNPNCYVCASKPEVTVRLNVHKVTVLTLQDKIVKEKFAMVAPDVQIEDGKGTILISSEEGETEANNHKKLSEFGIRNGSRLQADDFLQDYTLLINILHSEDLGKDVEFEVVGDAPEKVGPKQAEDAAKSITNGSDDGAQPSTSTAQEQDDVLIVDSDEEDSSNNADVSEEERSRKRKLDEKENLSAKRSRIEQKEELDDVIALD
Chain of SUMO-activating enzyme (Q9UBE0 whole entry partner): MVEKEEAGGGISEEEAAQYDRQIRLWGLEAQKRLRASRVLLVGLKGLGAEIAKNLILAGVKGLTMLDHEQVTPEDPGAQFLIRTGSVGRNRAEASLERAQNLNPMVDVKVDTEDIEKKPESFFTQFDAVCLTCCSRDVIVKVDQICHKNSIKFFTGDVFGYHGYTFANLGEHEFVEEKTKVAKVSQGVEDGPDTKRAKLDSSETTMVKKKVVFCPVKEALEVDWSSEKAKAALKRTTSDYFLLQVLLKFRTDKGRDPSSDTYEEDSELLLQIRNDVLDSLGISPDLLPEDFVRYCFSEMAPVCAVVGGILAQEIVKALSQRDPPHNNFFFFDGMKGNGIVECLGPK
Chain of SUMO-activating enzyme (P63165 1-97 partner limits assumed): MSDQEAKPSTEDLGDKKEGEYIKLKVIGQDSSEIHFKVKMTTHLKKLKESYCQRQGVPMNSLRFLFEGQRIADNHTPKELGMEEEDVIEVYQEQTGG

On to `Cc1sc(C(=O)c2cncnc2N[C@@H]2C[C@H](COS(N)(=O)=O)[C@@H](O)C2)cc1[C@@H]1NCCc2ccc(Cl)cc21` [Compound I-263a, [(1R,2S,4R)-4-{[5-({4-[(1R)-7-chloro-1,2,3,4-tetrahydroisoquinolin-1-yl]-5-methyl-2-thienyl}carbonyl)pyrimidin-4-yl]amino}-2-hydroxycyclopentyl]methyl sulfamate], for which the “Inhibition of SUMO-activating enzyme and SUMOylation in cells” value in experiment [1] is “Selective and potent inhibition”. Besides, in experiment [2] (mechanism-based inhibitor forming a covalent adduct with SUMO), the “Inhibition of SUMO-activating enzyme activity” value was “potently inhibits enzyme activity”. Besides, in experiment [2] (over ubiquitin-activating enzyme, Nedd8-activating enzyme, and autophagy related 7 enzyme), the “Selectivity for SUMO-activating enzyme” value is listed as “Strong selectivity”. For the same compound, in experiment [3] (I-263a 7.5 mg/kg BIW IV), the “Tumor Volume on Day 22 (±SEM)” value was found to be 1509.4 ± 109.1 and the GRI% was determined as 15%. Further, in experiment [3], the “Tumor growth relative to vehicle-treated tumors (pairwise comparison)” value was “tumor growth inhibition”. For the same compound, the “Tumor growth compared to vehicle treated mice (pairwise comparison)” value in experiment [4] (setting [5]) is given as “significant tumor growth inhibition”. For the same compound, in experiment [4] (I-263a 7.5 mg/kg BIW IV), the “Tumor volume on Day 17 (± SEM)” value was found to be 1043.3 ± 260.1 and the GRI% is 15%.
For the compound “Daratumumab: immunoglobulin G1 kappa (IgG1κ) human monoclonal antibody against CD38 antigen”, the “Tumor Volume on Day 22 (±SEM)” value in experiment [3] (Daratumumab 7.5 mg/kg BIW IP) is reported as 1043.9 ± 159.1. In addition, the GRI% in experiment [3] (Daratumumab 7.5 mg/kg BIW IP) worked out at 29%; in experiment [4] (Daratumumab 2.5 mg/kg BIW IP), 16%; in experiment [4] (Daratumumab 7.5 mg/kg BIW IP), 8%; in experiment [4] (Daratumumab 20 mg/kg BIW IP) it was 10%. Moreover, the “Tumor growth relative to vehicle-treated tumors (pairwise comparison)” value in experiment [3] is given as “tumor growth inhibition”. In addition, the “Tumor volume on Day 17 (± SEM)” value in experiment [4] (Daratumumab 2.5 mg/kg BIW IP) is listed as 988.8 ± 183.4; in experiment [4] (Daratumumab 7.5 mg/kg BIW IP) it was 1204.8 ± 190.1; in experiment [4] (Daratumumab 20 mg/kg BIW IP), 1078 ± 207.7. Further, the “Tumor growth compared to vehicle treated mice (pairwise comparison)” value is on record as “significant tumor growth inhibition” in experiment [4] (setting [5]) and “not significantly different from vehicle treated mice” in experiment [4] (daratumumab 2.5 mg/kg or 7.5 mg/kg single agent, p > 0.05).
